From US12180187B2, “1-phenyl-5-azinylpyrazolyl-3-oxyalkyl acids and their use for controlling unwanted plant growth” (BAYER AKTIENGESELLSCHAFT, priority 2019, dated 2024)

What was measured:
POLCO [1] = test: Post-emergence action at 320 g/ha against POLCO; assay type: in vivo, Fallopia convolvulus (Polygonum convolvulus); settings: visual rating about 3 weeks after treatment vs untreated controls
From the text: (§1) Accordingly, the compounds of the invention have good herbicidal action against a broad spectrum of weed grasses and broad-leaved weeds and are therefore suitable for controlling unwanted vegetation by the post-emergence method. • b) Seeds of monocotyledonous and dicotyledonous weeds and crop plants are placed in sandy loam in plastic or organic planting pots, covered with soil and cultivated in a greenhouse under controlled growth conditions. 2 to 3 weeks after sowing, the test plants are treated at the one-leaf stage. The compounds of the invention, formulated in the form of wettable powders (WP) or as emulsion concentrates (EC), are then sprayed onto the green parts of the plants as aqueous suspension or emulsion with addition of 0.5% additive at a water application rate of 600 l/ha (converted). After the test plants have been kept in the greenhouse under optimum growth conditions for about 3 weeks, the activity of the preparations is rated visually in comparison to untreated controls. For example, 100% activity=the plants have died, 0% activity=like control plants. Tables 39 to 49 below show the effects of selected compounds of the general formula (I) according to Tables 1 and 2 on various harmful plants and at an application rate corresponding to 320 g/ha, which were obtained by the experimental procedure mentioned above.

ABUTH = test: Post-emergence action at 320 g/ha against ABUTH; assay type: in vivo, Abutilon theophrasti; settings: visual rating about 3 weeks after treatment vs untreated controls
From the text: as §1

MATIN = test: Pre-emergence action at 320 g/ha against MATIN; assay type: in vivo, Tripleurospermum inodorum (Matricaria inodora); settings: visual scoring after about 3 weeks vs untreated controls
Outline: (§2)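 Weed and crop seeds sown in pots and covered with soil; WP or EC formulations sprayed pre-emergence onto the soil surface at 320 g/ha with 0.5% additive in 600 l/ha water. Kept in greenhouse; after about 3 weeks activity scored visually as % versus untreated controls (100% = plants dead, 0% = as control).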

PHBPU [2] = test: Pre-emergence action at 320 g/ha against PHBPU; assay type: in vivo; settings: visual scoring after about 3 weeks vs untreated controls
From the text: b) Seeds of monocotyledonous and dicotyledonous weed plants and crop plants are placed in plastic or organic planting pots and covered with soil. The compounds of the invention, formulated in the form of wettable powders (WP) or as emulsion concentrates (EC), are then applied onto the surface of the covering soil as aqueous suspension or emulsion with addition of 0.5% additive at a water application rate of 600 l/ha (converted). After the treatment, the pots are placed in a greenhouse and kept under good growth conditions for the trial plants. After about 3 weeks, the effect of the preparations is scored visually in comparison with untreated controls as percentages. For example, 100% activity=the plants have died, 0% activity=like control plants. Tables 13 to 26 below show the effects of selected compounds of the general formula (I) on various harmful plants and at an application rate corresponding to 320 g/ha, which were obtained by the experimental procedure mentioned above.

DIGSA [3] = test: Post-emergence action at 320 g/ha against DIGSA; assay type: in vivo, Digitaria sanguinalis; settings: dosage 320 g/ha, visual rating about 3 weeks after treatment vs untreated controls (100% = plants died)
From the text: as §1

ALOMY [4] = test: Pre-emergence action at 320 g/ha against ALOMY; assay type: in vivo, Alopecurus myosuroides; settings: scored visually after about 3 weeks vs untreated controls (100% = plants have died)
Outline: as §2

VIOTR [5] = test: Post-emergence action at 320 g/ha against VIOTR; assay type: in vivo, Viola tricolor; settings: visual rating about 3 weeks after treatment vs untreated controls
From the text: as §1

PHBPU [6] = test: Post-emergence action at 320 g/ha against PHBPU; assay type: in vivo; settings: visual rating about 3 weeks after treatment vs untreated controls
From the text: as §1

LOLRI = test: Pre-emergence action at 320 g/ha against LOLRI; assay type: in vivo, Lolium rigidum; settings: visual scoring after about 3 weeks vs untreated controls
Outline: as §2

POLCO [7] = test: Pre-emergence action at 320 g/ha against POLCO; assay type: in vivo, Fallopia convolvulus (Polygonum convolvulus); settings: visual scoring after about 3 weeks vs untreated controls
Outline: as §2

DIGSA [8] = test: Pre-emergence action at 320 g/ha against DIGSA; assay type: in vivo, Digitaria sanguinalis; settings: visual scoring after about 3 weeks vs untreated controls
Outline: as §2

VIOTR [9] = test: Pre-emergence action at 320 g/ha against VIOTR; assay type: in vivo, Viola tricolor; settings: dosage 320 g/ha
Outline: as §2

ECHGC = test: Pre-emergence action at 320 g/ha against ECHGC; assay type: in vivo, Echinochloa crus-galli; settings: visual scoring after about 3 weeks vs untreated controls
Outline: as §2

AMARE [10] = test: Post-emergence action at 320 g/ha against AMARE; assay type: in vivo, Amaranthus retroflexus; settings: visual rating about 3 weeks after treatment vs untreated controls
From the text: as §1

ECHCG = test: Post-emergence action at 320 g/ha against ECHCG; assay type: in vivo, Echinochloa crus-galli; settings: dosage 320 g/ha, visual rating about 3 weeks after treatment vs untreated controls (100% = plants died)
From the text: as §1

VERPE = test: Pre-emergence action at 320 g/ha against VERPE; assay type: in vivo, Veronica persica; settings: visual scoring after about 3 weeks vs untreated controls
Outline: as §2

AMARE [11] = test: Pre-emergence action at 320 g/ha against AMARE; assay type: in vivo, Amaranthus retroflexus; settings: visual scoring after about 3 weeks vs untreated controls
Outline: as §2

ALOMY [12] = test: Post-emergence action against ALOMY, 320 g/ha; assay type: in vivo, Alopecurus myosuroides; settings: dosage 320 g/ha, visual rating about 3 weeks after treatment vs untreated controls (100% = plants died)
Outline: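 Herbicidal effect is scored by eye about 3 weeks after a foliar spray and expressed as percent activity, with untreated plants as 0% and dead plants as 100%. Treatment is applied at the one-leaf stage of greenhouse-grown, soil-sown plants, at a water rate of 600 l/ha containing 0.5% additive.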

SETVI [13] = test: Post-emergence action at 320 g/ha against SETVI; assay type: in vivo, Setaria viridis; settings: visual rating about 3 weeks after treatment vs untreated controls
From the text: as §1

AVEFA [14] = test: Pre-emergence action at 320 g/ha against AVEFA; assay type: in vivo; settings: visual scoring after about 3 weeks vs untreated controls
Outline: as §2

SETVI [15] = test: Pre-emergence action at 320 g/ha against SETVI; assay type: in vivo, Setaria viridis; settings: visual scoring after about 3 weeks vs untreated controls
Outline: as §2

AVEFA [16] = test: Post-emergence action at 320 g/ha against AVEFA; assay type: in vivo; settings: visual rating about 3 weeks after treatment vs untreated controls
From the text: as §1

With COC(=O)COc1nn(-c2ccccc2F)c(-c2ccc(F)nc2)c1Br [VII-001] the “Post-emergence action against POLCO in %” value (POLCO [1]) was 80%, the “Post-emergence action against ABUTH in %” value (ABUTH) was 80% and the “Pre-emergence action against MATIN in %” value (MATIN) was 90%. The “Pre-emergence action against PHBPU in %” value (PHBPU [2]) was 100%, the “Post-emergence action at 320 g/ha against DIGSA in %” value (DIGSA [3]) was 90% and the “Pre-emergence action at 320 g/ha against ALOMY in %” value (ALOMY [4]) was 100%. For the same compound, the “Post-emergence action against VIOTR in %” value (VIOTR [5]) was 80%, the “Post-emergence action against PHBPU in %” value (PHBPU [6]) was 90% and the “Pre-emergence action against LOLRI in %” value (LOLRI) was 100%. The “Pre-emergence action against POLCO in %” value (POLCO [7]) was 90%, the “Pre-emergence action against DIGSA in %” value (DIGSA [8]) was 100% and the “Pre-emergence action against VIOTR in %” value (VIOTR [9]) was 100%. The “Pre-emergence action against ECHGC in %” value (ECHGC) was 100%, the “Post-emergence action against AMARE in %” value (AMARE [10]) was 90% and the “Post-emergence action at 320 g/ha against ECHCG in %” value (ECHCG) was 100%. The “Pre-emergence action against VERPE in %” value (VERPE) was 100%, the “Pre-emergence action against AMARE in %” value (AMARE [11]) was 100% and the “Post-emergence action against ALOMY” value (ALOMY [12]) was 90%. The “Post-emergence action against SETVI in %” value (SETVI [13]) was 90%, the “Pre-emergence action against AVEFA in %” value (AVEFA [14]) was 90% and the “Pre-emergence action against SETVI in %” value (SETVI [15]) was 100%. For the same compound, the “Post-emergence action against AVEFA in %” value (AVEFA [16]) was 90%.
